Structures can show the parent of a compound that is named as a salt.
Experiments:
[1] = system: T. brucei brucei strain BF427; test: T. brucei growth inhibition assay; assay type: cell-based, Trypanosoma brucei brucei; conditions: for activity on T. brucei cells (in words): T. brucei EC50 assay
[2] = system: T. brucei brucei (strain TREU667); test: Chronic; assay type: in vivo, mouse; conditions: for relapse with parasites in the blood / suppression of parasitemia during treatment phase: TREU667, 50 mg/kg twice a day oral day 21 to 34; for number of mice free of parasitemia/number of mice in the group: same dosing
[3] = day 35 post-infection, day 1 post-treatment
[4] = day 36 post-infection, day 2 post-treatment
[5] = day 37 post-infection, day 3 post-treatment
[6] = day 39 post-infection, day 5 post-treatment
[7] = day 38 post-infection, day 4 post-treatment
[8] = day 40 post-infection, day 6 post-treatment

Q: With `N#CCN(C(=O)c1ccc(Cl)cc1Cl)c1ccc(Cl)cc1` [Compound 60, 2,4-Dichloro-N-(4-chlorophenyl)-N-(cyanomethyl)benzamide] as the compound, how does the “activity on T. brucei cells (in words)” value [1] read?
A: The value was “inactive”.

Q: How did the “fold more active than 2-floro (30) or 4-fluoro (28) derivatives” value ([1]; vs 30 or 28) turn out when `Cl.NCCN(C(=O)c1ccc(F)cc1F)c1ccc(Cl)cc1` [Compound 40, N-(2-Aminoethyl)-N-(4-chlorophenyl)-2,4-difluorobenzamide hydrochloride] was run?
A: The value was “at least 3 fold”.

Q: How did the “activity on T. brucei cells (in words)” value [1] turn out when `Cl.O=C(c1ccc(Cl)cc1Cl)N(c1ccc(Cl)cc1)c1cccnc1` [Compound 63, 2,4-Dichloro-N-(4-chlorophenyl)-N-(pyridin-3-yl)benzamide] was run?
A: Its value is “inactive”.

Q: How did the EC50 ([1]; Trypanosoma brucei, 48 h, read-out: EC50, concentration required to inhibit growth by 50% of T. brucei brucei, strain BF427, 48H, AlamarBlue) turn out when `NCCN(C(=O)c1ccccc1C(F)(F)F)c1ccc(Cl)cc1` [Compound 42, N-(2-aminoethyl)-N-(4-chlorophenyl)-2-(trifluoromethyl) benzamide hydrochloride] was run?
A: The EC50 was 0.18 µM.

Q: Which “activity on T. brucei cells (in words)” value [1] does the source give for `Cl.NCCN(C(=O)c1ccc(Cl)cc1Cl)c1ccc(N)cc1` [Compound 10, N-(2-Aminoethyl)-N-(4-aminophenyl)-2,4-dichlorobenzamide] here?
A: Its value is “eliminated activity”.

Q: `Cl.NCCN(C(=O)c1ccc(Cl)cc1Cl)c1ccc(Oc2ccc(Cl)cc2)cc1` [Compound 16, N-(2-Aminoethyl)-2,4-dichloro-N-[4-(4-chlorophenoxy)phenyl] benzamide hydrochloride] was tested. Which “fold enhancement of potency with respect to compound 1” value ([1]; vs 1, T. brucei EC50) did it give?
A: The value was 7 fold.

Q: `Cl.NCCN(C(=O)c1ccccc1C(F)(F)F)c1ccc(OCc2ccc(Cl)cc2)cc1` [Compound 66, N-(2-Aminoethyl)-N-{4-[(4-chlorophenyl)methoxy]phenyl}-2-(trifluoromethyl)benzamide hydrochloride] was tested. Which “activity on T. brucei cells (in words)” value [1] did it give?
A: The value was “single digit nanomolar EC50 values”.

Q: With `CC1(C)OB(O)c2cc(NC(=O)c3ccc(F)cc3C(F)(F)F)ccc21` [SCYX-7158, reference compound] as the compound, how does the “cure in late-stage model (in words)” value ([2]; 50 mg/kg PO twice per day) read?
A: The value was “cured all mice”.

Q: Which results are given for `Cl.NCCN(C(=O)c1ccccc1Cl)c1ccc(Cl)cc1` [Compound 23, N-(2-Aminoethyl)-2-chloro-N-(4-chlorophenyl)benzamide hydrochloride]?
A: fold more active than 4-chlorobenzoyl derivative 21 ([1]; vs 21): ~8 fold; fold more active than 3-chloro (22) ([1]; vs 22): 3 fold

Q: Which results are given for `CC(C)c1ccc(COc2ccc(N(CCN)C(=O)c3cccnc3Cl)cc2)cc1.Cl` [Compound 72, N-(2-Aminoethyl)-2-chloro-N-(4-{[4-(propan-2-yl)phenyl]methoxy}phenyl)pyridine-3-carboxamide hydrochloride]?
A: relapse with parasites in the blood [2]: all mice relapsed; suppression of parasitemia during treatment phase [2]: complete suppression; number of mice free of parasitemia/number of mice in the group [2, 3]: 5/5; number of mice free of parasitemia/number of mice in the group [2, 4]: 5/5; number of mice free of parasitemia/number of mice in the group [2, 5]: 4/5; number of mice free of parasitemia/number of mice in the group [2, 6]: 2/5

Q: What does the source list for `Cc1cc(C)cc(COc2ccc(N(CCN)C(=O)c3ccc(Cl)cc3Cl)cc2)c1.Cl` [Compound 76, N-(2-Aminoethyl)-2,4-dichloro-N-{4-[(3,5-dimethylphenyl)methoxy]phenyl}benzamide hydrochloride]?
A: relapse with parasites in the blood [2]: all mice relapsed; suppression of parasitemia during treatment phase [2]: partial suppression; number of mice free of parasitemia/number of mice in the group [2, 3]: 3/4; number of mice free of parasitemia/number of mice in the group [2, 4]: 3/4; number of mice free of parasitemia/number of mice in the group [2, 5]: 3/4; number of mice free of parasitemia/number of mice in the group [2, 7]: 3/4; number of mice free of parasitemia/number of mice in the group [2, 6]: 2/4; number of mice free of parasitemia/number of mice in the group [2, 8]: 1/4

Q: What does the source list for `N=C(N)c1ccc(/N=N/Nc2ccc(C(=N)N)cc2)cc1` [Diminazene, diminazene aceturate, reference compound]?
A: number of mice free of parasitemia/number of mice in the group [2, 3]: 3/3; number of mice free of parasitemia/number of mice in the group [2, 4]: 3/3; number of mice free of parasitemia/number of mice in the group [2, 5]: 3/3; number of mice free of parasitemia/number of mice in the group [2, 7]: 3/3; number of mice free of parasitemia/number of mice in the group [2, 6]: 3/3; number of mice free of parasitemia/number of mice in the group [2, 8]: 3/3; number of mice free of parasitemia/number of mice in the group ([2]; day 41–42 post-infection, day 7–8 post-treatment): 3/3; number of mice free of parasitemia/number of mice in the group ([2]; day 43–45 post-infection, day 9–11 post-treatment): 3/3; number of mice free of parasitemia/number of mice in the group ([2]; day 46–49 post-infection, day 12–15 post-treatment): 1/3; number of mice free of parasitemia/number of mice in the group ([2]; day 50–51 post-infection, day 16–17 post-treatment): 0/3

Reference: paper PMC5419589 (Bioorganic & medicinal chemistry, 2016)
